Data as given in US5962472A, “Use of 4-phenyl-3,6-dihydro-2H-pyridyl derivatives” (Hoffmann-La Roche Inc., priority 1996, dated 1999).
pIC50: −log10 of the molar value. Where a name gives a salt, the structure may show the parent alone. Read-outs that look alike come from different tables or passages of the source.

Experiments:
[1] = target: NMDA receptor (3H-MK801 binding, high and low affinity binding sites); assay: 3H-MK801 (Dizocilpine) binding in vitro, rat whole brain membranes; conditions: 5 nM 3H-MK-801, 2 hours, room temperature
Method: 3H-MK801 (Dizocilpine) binding in vitro
The whole brain from 150-200 g male rats, without cerebellum and without medulla oblongata was dissected on ice. The tissue was then homogenized with an Ultra-Turrax maximum speed during 30 seconds at 4° C. in 50 volumes of cold Tris HCl 50 mM, EDTA disodium 10 mM, pH=7.4 buffer (wet weight/v). The homogenate was centrifuged at 48'000 x g (20'000 rpm, SS34, Sorvall RC5C) for 10 minutes. The pellet was rehomogenized with the same volume of buffer and the homogenate incubated at 37° C. for 10 minutes. After centrifugation as above, the pellet was rehomogenized with the same volume of buffer and frozen at -80° C. in 35 ml fractions for at least 16 hours and not more than 2 weeks.
For the binding experiment, the homogenate was centrifuged as above and the pellet was washed 3 times by homogenization in 25 volumes of cold Tris HCl 5mM, pH=7.4 buffer (Ultra-Turrax, maximum speed, 30 seconds) and centrifugation as above. The final pellet was rehomogenized in 25 volumes of buffer (original wet weight) and used as such in the assay. The final concentration of membrane in the assay was 20 mg/ml (wet weight).
The incubation was performed in the presence of 1 nM glutamate, glycine and spermidine. MK-801, (+)-[3-3H(N)], NEN (NET-972) 20Ci/mmol, was used at 5 nM final concentration. Non specific binding was determined in presence of 10ONM 1-[1-(2-Thienyl)cyclohexyl]piperidine (TCP). After 2 hours of incubation at room temperature, the suspension was filtered (Whatmann GF/B, soaked in 0.1% polyethylenimine for 2 hours) and washed 5 times with 3 ml of cold Tris HCl 5mM, pH=7.4 buffer. The air-dried filters were counted with 10 ml of Ultima-gold (Packard) in a Tri-Carb 2500 TR scintillation counter after agitation.
The radioactive decays per minute (DPM) were transformed in % of specific binding and these values were treated by a non linear regression calculation program (BINDING, H. Affolter, Switzerland) which provided the IC50 values for the low and high affinity binding sites (=concentrations producing half maximal inhibition at the respective sites). Each experiment was repeated at least three times and the final IC50 values were calculated as the mean +/-standard deviation of the individual experiments.
Reference: R. W. Ransom and N. L. Stec. Journal of Neurochemistry 51, 830-836, 1988.

NMDAR1C--NMDAR2B = target: T1, NMDAR1C--NMDAR2B (Rattus norvegicus, UniProt P35439+Q00960); assay: Electrophysiology on recombinant NMDA receptors NMDAR1C-NMDAR2B expressed in Xenopus oocytes; type: cell-based; conditions: -80 mV, 15 μM Asp plus 0.2 μM Gly, read-out: Electrophysiology IC50 NMDAR 1C u. 2B
T1 construct: expressed in transfected cells; host or cells: Xenopus laevis oocytes, mRNA injected 1:1
Description: (§1) Electrophysiology on recombinant NMDA receptors
(§2) cDNA clones coding for the subunits NMDAR1C and NMDAR2A of the NMDA receptor (see Hollmann and Heinemann, 1994, Annu. Rev. Neurosci. 17:31 for nomenclature of NMDA receptor subunits) were isolated from a rat brain λgt11 cDNA library as published elsewhere (Sigel et al., 1994, J. Biol. Chem. 269:8204). The clone for the subunit NMDAR2B of the rat brain NMDA receptor was obtained from S. Nakanishi (Kyoto, Japan). The cDNAs were transcribed, capped and poly(A^+)-tailed as described previously (Malherbe et al., 1990, Mol. Brain Res. 8: 199). Oocytes of South African frogs (Xenopus laevis) were used for expressing either a combination of the NMDAR1C and NMDAR2A subunits or the NMDAR1C and NMDAR2B subunits. Approximately 3 fmol of a 1:1 mixture of the respective mRNA species were injected into every oocyte. Four to five days later the ion current through the NMDA receptor channels was measured in voltage clamp experiments (see Methfessel et al., 1986, Pfliigers Arch. 407:577 for the methods of oocyte expression and voltage-clamping). The membrane potential was clamped to -80 mV and the receptors were activated by applying a modified Ringer's solution containing the NMDA-receptor agonists L-asparatate (Asp) and glycine (Gly). Different agonist concentrations were chosen for either subunit combination to account for the different agonist sensitivities of the two types of receptors (70 μM Asp plus 2.5 μM Gly for NMDARlC--NMDAR2A and 15 μM Asp plus 0.2 μM Gly for NMDAR1C--NMDAR2B). The agonists were applied for 15 s intervals once every 2.5 min by rapid superfusion of the oocyte with agonist containing solution and the amplitude of the agonist-evoked current was measured immediately before the end of each application. After a series of initial control applications, increasing concentrations of the antagonist to be tested were added to both, the basal Ringer's and the agonist containing solution. […] Figures for the IC50 in all other cases are arithmetic mean values of individual IC50 s determined by the logistic curve fits.

NMDAR1C--NMDAR2A = target: T2, NMDAR1C--NMDAR2A (Rattus norvegicus, UniProt P35439+Q00959); assay: Electrophysiology on recombinant NMDA receptors NMDAR1C-NMDAR2A expressed in Xenopus oocytes; type: cell-based; conditions: -80 mV, 70 μM Asp plus 2.5 μM Gly, > = highest tested concentration (solubility limit), read-out: Electrophysiology IC50 NMDAR 1C u. 2A
T2 construct: expressed in transfected cells; host or cells: Xenopus laevis oocytes, mRNA injected 1:1
Description: as §1, §2

[2] = high affinity binding site, read-out: 3H-MK801 IC50 high
[3] = low affinity binding site, read-out: 3H-MK801 IC50 low

T1 sequence (Q00960 27-1482, other chains not shown): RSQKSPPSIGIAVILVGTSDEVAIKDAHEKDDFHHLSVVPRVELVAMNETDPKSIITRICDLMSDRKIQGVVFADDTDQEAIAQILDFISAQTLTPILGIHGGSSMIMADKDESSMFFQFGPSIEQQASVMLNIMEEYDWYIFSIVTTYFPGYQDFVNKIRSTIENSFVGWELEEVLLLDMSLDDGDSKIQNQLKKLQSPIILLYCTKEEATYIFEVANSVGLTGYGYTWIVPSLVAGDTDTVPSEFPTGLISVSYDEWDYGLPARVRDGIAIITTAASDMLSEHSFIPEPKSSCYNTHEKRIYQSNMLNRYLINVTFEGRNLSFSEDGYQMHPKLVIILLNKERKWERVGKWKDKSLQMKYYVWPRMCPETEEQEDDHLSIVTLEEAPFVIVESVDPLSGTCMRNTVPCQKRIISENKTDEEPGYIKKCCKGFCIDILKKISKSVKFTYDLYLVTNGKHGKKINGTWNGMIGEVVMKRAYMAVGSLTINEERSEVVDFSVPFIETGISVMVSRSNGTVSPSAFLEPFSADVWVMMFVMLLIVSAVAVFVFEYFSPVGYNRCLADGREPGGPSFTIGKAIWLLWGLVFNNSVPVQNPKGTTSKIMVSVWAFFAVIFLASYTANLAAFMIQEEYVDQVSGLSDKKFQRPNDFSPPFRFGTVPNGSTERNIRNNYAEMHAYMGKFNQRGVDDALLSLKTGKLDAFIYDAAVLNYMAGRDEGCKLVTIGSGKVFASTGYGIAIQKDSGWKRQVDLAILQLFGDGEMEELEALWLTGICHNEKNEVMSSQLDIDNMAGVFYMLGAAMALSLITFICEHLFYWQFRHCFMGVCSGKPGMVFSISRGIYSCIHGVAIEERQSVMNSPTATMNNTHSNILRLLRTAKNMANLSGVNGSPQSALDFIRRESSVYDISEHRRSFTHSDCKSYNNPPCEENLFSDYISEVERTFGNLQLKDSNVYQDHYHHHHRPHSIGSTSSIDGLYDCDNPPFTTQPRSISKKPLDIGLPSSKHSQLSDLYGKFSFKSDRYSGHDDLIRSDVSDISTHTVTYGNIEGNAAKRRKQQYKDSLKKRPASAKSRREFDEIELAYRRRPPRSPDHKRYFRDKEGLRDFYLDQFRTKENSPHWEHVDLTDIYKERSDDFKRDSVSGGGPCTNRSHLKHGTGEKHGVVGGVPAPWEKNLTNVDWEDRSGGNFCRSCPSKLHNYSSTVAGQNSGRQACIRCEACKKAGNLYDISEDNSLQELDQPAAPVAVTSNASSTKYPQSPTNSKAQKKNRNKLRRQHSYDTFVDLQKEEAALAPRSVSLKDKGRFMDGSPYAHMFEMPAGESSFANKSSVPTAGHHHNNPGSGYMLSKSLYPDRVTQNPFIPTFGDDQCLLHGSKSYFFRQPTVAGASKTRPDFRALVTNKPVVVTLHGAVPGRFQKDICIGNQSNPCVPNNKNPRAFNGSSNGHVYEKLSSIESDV
T2 sequence (Q00959 23-1464, other chains not shown): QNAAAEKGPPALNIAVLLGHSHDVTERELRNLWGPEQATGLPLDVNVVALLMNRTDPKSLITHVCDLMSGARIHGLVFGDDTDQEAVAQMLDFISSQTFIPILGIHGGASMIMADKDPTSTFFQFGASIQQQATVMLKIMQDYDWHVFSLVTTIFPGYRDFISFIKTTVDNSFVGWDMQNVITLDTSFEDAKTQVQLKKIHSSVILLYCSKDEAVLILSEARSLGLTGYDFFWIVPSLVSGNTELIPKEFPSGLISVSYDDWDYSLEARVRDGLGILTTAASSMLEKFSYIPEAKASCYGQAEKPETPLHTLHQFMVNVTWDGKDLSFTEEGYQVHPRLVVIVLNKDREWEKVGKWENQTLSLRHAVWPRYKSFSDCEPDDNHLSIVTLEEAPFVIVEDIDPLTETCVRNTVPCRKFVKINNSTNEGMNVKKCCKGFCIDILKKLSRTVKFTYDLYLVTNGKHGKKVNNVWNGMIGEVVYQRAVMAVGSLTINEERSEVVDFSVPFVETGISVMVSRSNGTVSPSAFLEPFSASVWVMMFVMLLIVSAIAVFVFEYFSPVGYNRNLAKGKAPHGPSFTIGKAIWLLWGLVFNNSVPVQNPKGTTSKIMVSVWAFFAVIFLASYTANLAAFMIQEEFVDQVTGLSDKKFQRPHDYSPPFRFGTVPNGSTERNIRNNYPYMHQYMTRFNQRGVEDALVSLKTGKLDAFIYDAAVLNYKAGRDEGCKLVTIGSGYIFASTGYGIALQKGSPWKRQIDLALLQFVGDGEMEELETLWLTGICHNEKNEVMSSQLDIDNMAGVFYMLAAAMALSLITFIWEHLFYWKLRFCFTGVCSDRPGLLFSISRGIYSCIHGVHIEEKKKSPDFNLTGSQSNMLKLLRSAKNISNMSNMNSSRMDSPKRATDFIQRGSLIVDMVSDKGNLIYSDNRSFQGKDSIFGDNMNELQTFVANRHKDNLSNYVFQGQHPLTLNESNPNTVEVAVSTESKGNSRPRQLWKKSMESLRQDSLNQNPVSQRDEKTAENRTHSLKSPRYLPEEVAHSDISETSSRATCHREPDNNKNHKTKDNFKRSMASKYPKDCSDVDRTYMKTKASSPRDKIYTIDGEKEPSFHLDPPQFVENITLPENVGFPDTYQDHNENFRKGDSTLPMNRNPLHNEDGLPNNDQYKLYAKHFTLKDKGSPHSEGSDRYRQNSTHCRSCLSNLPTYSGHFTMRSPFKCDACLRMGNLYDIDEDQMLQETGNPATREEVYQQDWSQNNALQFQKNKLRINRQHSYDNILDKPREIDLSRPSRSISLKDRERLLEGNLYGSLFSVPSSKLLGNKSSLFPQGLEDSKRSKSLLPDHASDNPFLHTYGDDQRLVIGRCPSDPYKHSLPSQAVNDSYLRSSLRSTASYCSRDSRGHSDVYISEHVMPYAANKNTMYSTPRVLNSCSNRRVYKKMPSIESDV

## NC(=O)Nc1ccc(OCC(O)CN2CC=C(c3ccc(F)cc3)CC2)cc1 (stereo not drawn) [A, [4-[3-[4-(4-Fluoro-phenyl)-3,6-dihydro-2H-pyridin-1-yl]-2-hydroxy-propoxy]-phenyl]-urea]
[1]; [2]
  pIC50: 7.70
[1]; [3]
  pIC50: 4.26

## CS(=O)(=O)Nc1ccc(OCCCN2CC=C(c3ccc(F)cc3)CC2)cc1 [B, N-[4-[3-[4-(4-Fluoro-phenyl)-3,6-dihydro-2H-pyridin-1-yl]-propoxy]-phenyl]-methanesulfonamide hydrochloride (1:1)]
[1]; [2]
  pIC50: 7.70
[1]; [3]
  pIC50: 4.12

## CS(=O)(=O)Nc1ccc(OCC(O)CN2CC=C(c3ccc(F)cc3)CC2)cc1 (stereo not drawn) [C, N-[4-[3-[4-(4-Fluoro-phenyl)-3,6-dihydro-2H-pyridin-1-yl]-2-hydroxy-propoxy]-phenyl]-methanesulfonamide]
[1]; [2]
  pIC50: 7.70
[1]; [3]
  pIC50: 4.16

## CCOC(=O)Nc1ccc(OCC(O)CN2CC=C(c3ccc(F)cc3)CC2)cc1 (stereo not drawn) [D, [4-[3-[4-(4-Fluoro-phenyl)-3,6-dihydro-2H-pyridin-1-yl]-2-hydroxy-propoxy]-phenyl]-carbamic acid ethyl ester]
NMDAR1C--NMDAR2B
  pIC50: 6.20
NMDAR1C--NMDAR2A
  pIC50: < 4.70
[1]; [2]
  pIC50: 6.87
[1]; [3]
  pIC50: 3.49

## CC(=O)Nc1ccc(OCCCN2CC=C(c3ccc(Cl)cc3)CC2)cc1 [E, N-[4-[3-[4-(4-chloro-phenyl)-3,6-dihydro-2H-pyridin-1-yl]-propoxy]-phenyl]-acetamide]
[1]; [2]
  pIC50: 6.70
[1]; [3]
  pIC50: 4.06

## CC(=O)Nc1ccc(OCCCN2CC=C(c3ccc(F)cc3)CC2)cc1 [F]
[1]; [2]
  pIC50: 6.70
[1]; [3]
  pIC50: 4.07

## CS(=O)(=O)Nc1ccc(OCCN2CC=C(c3ccc(F)cc3)CC2)cc1 [G, N-[4-[2-[4-(4-Fluoro-phenyl)-3,6-dihydro-2H-pyridin-1-yl]-ethoxy]-phenyl]-methanesulfonamide]
NMDAR1C--NMDAR2B
  pIC50: 6.10
NMDAR1C--NMDAR2A
  pIC50: < 4.52
[1]; [2]
  pIC50: 6.63
[1]; [3]
  pIC50: 4.62

## NC(=O)c1ccc(OCC(O)CN2CC=C(c3ccc(F)cc3)CC2)cc1 (stereo not drawn) [H]
NMDAR1C--NMDAR2B
  pIC50: 6.15
NMDAR1C--NMDAR2A
  pIC50: < 4.52
[1]; [2]
  pIC50: 6.48
[1]; [3]
  pIC50: 4.40

## CC(=O)Nc1ccc(OCC(O)CN2CC=C(c3ccccc3)CC2)cc1 (stereo not drawn) [I]
[1]; [2]
  pIC50: 6.39
[1]; [3]
  pIC50: 3.96

## Nc1ccc(OCCCN2CC=C(c3ccc(F)cc3)CC2)cc1 [J]
[1]; [2]
  pIC50: 6.11
[1]; [3]
  pIC50: 4.36

## COc1ccc(C2=CCN(CCCOc3ccc(NC(C)=O)cc3)CC2)cc1 [K]
[1]; [2]
  pIC50: 6.04
[1]; [3]
  pIC50: 4.12

## CCC(=O)Nc1ccc(OCCCN2CC=C(c3ccc(F)cc3)CC2)cc1 [L]
[1]; [2]
  pIC50: 6.00
[1]; [3]
  pIC50: 3.96

## OC(COc1ccccc1)CN1CC=C(c2ccccc2)CC1 (stereo not drawn) [M]
[1]; [2]
  pIC50: 5.76
[1]; [3]
  pIC50: 3.99

## CC(=O)c1ccc(OCCCN2CC=C(c3ccccc3)CC2)cc1 [O]
[1]; [2]
  pIC50: 5.12
[1]; [3]
  pIC50: 3.53

## OC(COc1ccc2c(c1)CCC2)CN1CC=C(c2ccc(F)cc2)CC1 (stereo not drawn) [compound N]
[1]; [2]
  pIC50: 5.71
[1]; [3]
  pIC50: 3.59
